# In US6906098B2, “Mixed steroidal 1,2,4,5-tetraoxane compounds and methods of making and using thereof” (priority 2002, dated 2005):
# Read-outs that look alike come from different tables or passages of the source.
# Legend:
# [1] = test system: Mycobacterium tuberculosis H37Rv (ATCC 27294); assay: Primary screen, Microplate Alamar Blue Assay (MABA), percent inhibition; format: cell-based; details: primary screening at 6.25 μg/ml; for inhibition at 6.25 µg/mL: Mycobacterium tuberculosis
# Procedure: (§1) The activity of the compounds of the present invention against Mycobacterium tuberculosis was determined using the following assays conducted by the National Institute of Allergy and Infectious Diseases (NIAID) supports a TB drug acquisition and screening program, the TAACF.
# To determine the percent inhibition the following assay was conducted. Primary screening was conducted at 6.25 μg/ml (or the molar equivalent of highest molecular weight compound in a given series of congeners) against Mycobacterium tuberculosis H37Rv (ATCC 27294) in BACTEC 12B medium using the Microplate Alamar Blue Assay (MABA). See Collins, L. and S. G. Franzblau. 1997. Microplate alamar blue assay versus BACTEC 460 system for high-throughput screening of compounds against Mycobacterium tuberculosis and Mycobacterium avium. Antimicrob Agents Chemother 41:1004-9, which is herein incorporated by reference.
# Minimum compound requirements: 1.0 mg.
# M. tuberculosis H37Rv = assay: Minimum inhibitory concentration (MIC) in the MABA; format: cell-based, Mycobacterium tuberculosis
# Procedure: as §1
# 2. Minimum Inhibitory Concentration (MIC)
# The MIC is defined as the lowest concentration effecting a reduction in fluorescence of 90% relative to controls. Minimum compound requirements: 1.0 mg.
# [2] = test system: Plasmodium falciparum chloroquine-susceptible strain D6; assay: In vitro antimalarial drug susceptibility assay (radiolabeled hypoxanthine incorporation), strain D6; format: cell-based; details: for Strain D6 IC50: growth inhibition, chloroquine-susceptible strain D6, 66 h incubation; for IC50: Plasmodium falciparum, D6, 66 h, read-out: Strain D6 IC50, growth inhibition, chloroquine-susceptible strain D6, 66 h incubation
# [3] = test system: D6 and W2 P. falciparum clones; format: cell-based, Plasmodium falciparum; details: IC50 (W2)/IC50 (D6) ratio
# [4] = test system: Plasmodium falciparum chloroquine-resistant strain W2; assay: microbe, parasite or virus in culture; format: cell-based; details: for Strain W2 IC50: growth inhibition, chloroquine-resistant strain W2, 66 h incubation; for IC50: Plasmodium falciparum, W2, 66 h, read-out: Strain W2 IC50, growth inhibition, chloroquine-resistant strain W2, 66 h incubation
# [5] = Table 5, Alamar assay, M. tuberculosis H37Rv
# [6] = Table 3, H37Rv, read-out: Inhibition (%)
# [7] = Table 5, Alamar assay, read-out: % Inhib
# [8] = Mycobacterium tuberculosis, H37RV, Table 3, H37Rv, read-out: MIC
# [9] = Mycobacterium tuberculosis, H37RV, Table 5, Alamar assay, M. tuberculosis H37Rv, read-out: MIC
SMILES,"Inhibition (%) ([1]; Table 3, H37Rv)","% Inhib ([1]; Table 5, Alamar assay) [%]","MIC (M. tuberculosis H37Rv; Table 3, H37Rv) [µg/mL]",MIC (M. tuberculosis H37Rv; [5]) [µg/mL],Strain D6 IC50 [2] [µg/mL],Resistance Index [3],Strain W2 IC50 [4] [µg/mL],"inhibition at 6.25 µg/mL [1, 6] [%]","inhibition at 6.25 µg/mL [1, 7] [%]",MIC (M. tuberculosis H37Rv; [8]) [µg/mL],MIC (M. tuberculosis H37Rv; [9]) [µg/mL],IC50 [2] [µg/mL],IC50 [4] [µg/mL]
"COC(=O)CCC(C)[C@H]1CCC2C3C(C[C@H](OC(C)=O)[C@@]21C)[C@@]1(C)CCC2(C[C@H]1C[C@H]3OC(C)=O)OOC1(CCC(c3ccccc3)CC1)OO2 (single isomer, unassigned) [Compound 1B14b, Methyl 7α,12α-diacetoxy-5β-cholan-24-oate-3-spiro-6′-(1′,2′,4′,5′-tetraoxacyclohexane)-3′-spiro-1″-((4″R or S)- and (4″S or R)-phenyl)cyclohexane]",46,46,>6.25,>6.25,0.03176,0.79,0.025,–,–,–,–,–,–
"CCNC(=O)CCC(C)[C@H]1CCC2C3C(C[C@H](OC(C)=O)[C@@]21C)[C@@]1(C)CCC2(C[C@H]1C[C@H]3OC(C)=O)OOC1(CCC(c3ccccc3)CC1)OO2 (single isomer, unassigned) [Compound 1C47, N-Ethyl-7α,12α-Diacetoxy-5β-cholan-24-amide-3-spiro-6′-(1′,2′,4′, 5′-tetraoxacyclohexane)-3′-spiro-1″-((4″R or S)-phenyl)cyclohexane]",–,–,–,–,0.00541,1.08,0.00587,50,50,> 6.25,> 6.25,–,–
"CCCNC(=O)CCC(C)[C@H]1CCC2C3C(C[C@H](OC(C)=O)[C@@]21C)[C@@]1(C)CCC2(C[C@H]1C[C@H]3OC(C)=O)OOC1(CCC(c3ccccc3)CC1)OO2 (single isomer, unassigned) [Compound 1C48, N-(n-Propyl)-7α,12α-Diacetoxy-5β-cholan-24-amide-3-spiro-6′-(1′,2′,4′,5′-tetraoxacyclohexane)-3′-spiro-1″-((4″R or S)-phenyl)cyclohexane]",–,–,–,–,0.00659,1.02,0.00672,46,46,> 6.25,> 6.25,–,–
"CC(=O)O[C@H]1CC2C(C3CC[C@H](C(C)CCC(=O)O)[C@]31C)[C@H](OC(C)=O)C[C@@H]1CC3(CC[C@]21C)OOC1(CCC(c2ccccc2)CC1)OO3 (single isomer, unassigned) [Compound 1C49, 7α,12α-Diacetoxy-5β-cholan-24-oic acid-3-spiro-6′-(1′,2′,4′,5′-tetraoxacyclohexane)-3′-spiro-1″-((4″S or R)-phenyl)cyclohexane]",89,89,>6.25,>6.25,0.05424,0.81,0.04385,–,–,–,–,–,–
"CC(=O)O[C@H]1CC2C(C3CC[C@H](C(C)CCC(N)=O)[C@]31C)[C@H](OC(C)=O)C[C@@H]1CC3(CC[C@]21C)OOC1(CCC(c2ccccc2)CC1)OO3 (single isomer, unassigned) [Compound 1C50, 7α,12α-Diacetoxy-5β-cholan-24-amide-3-spiro-6′-(1′,2′,4′,5′-tetraoxacyclohexane)-3′-spiro-1″-((4″S or R)-phenyl)cyclohexane]",87,87,6.25,>6.25,0.04049,0.92,0.03746,–,–,–,–,–,–
"CNC(=O)CCC(C)[C@H]1CCC2C3C(C[C@H](OC(C)=O)[C@@]21C)[C@@]1(C)CCC2(C[C@H]1C[C@H]3OC(C)=O)OOC1(CCC(c3ccccc3)CC1)OO2 (single isomer, unassigned) [Compound 1C51, N-Methyl-7α,12α-Diacetoxy-5β-cholan-24-amide-3-spiro-6′-(1′,2′,4′,5′-tetraoxacyclohexane)-3′-spiro-1″-((4″S or R)-phenyl)cyclohexane]",61,61,>6.25,>6.25,0.06462,0.85,0.05472,–,–,–,–,–,–
"CCNC(=O)CCC(C)[C@H]1CCC2C3C(C[C@H](OC(C)=O)[C@@]21C)[C@@]1(C)CCC2(C[C@H]1C[C@H]3OC(C)=O)OOC1(CCC(c3ccccc3)CC1)OO2 (single isomer, unassigned) [Compound 1C52, N-Ethyl-7α,12α-Diacetoxy-5β-cholan-24-amide-3-spiro-6′-(1′,2′,4′,5′-tetraoxacyclohexane)-3′-spiro-1″-((4″S or R)-phenyl)cyclohexane]",62,62,>6.25,>6.25,0.03279,0.99,0.03258,–,–,–,–,–,–
"CCCNC(=O)CCC(C)[C@H]1CCC2C3C(C[C@H](OC(C)=O)[C@@]21C)[C@@]1(C)CCC2(C[C@H]1C[C@H]3OC(C)=O)OOC1(CCC(c3ccccc3)CC1)OO2 (single isomer, unassigned) [Compound 1C53, N-(n-Propyl)-7α,12α-Diacetoxy-5β-cholan-24-amide-3-spiro-6′-(1′,2′,4′,5′-tetraoxacyclohexane)-3′-spiro-1″-((4″S or R)-phenyl)cyclohexane]",59,59,>6.25,>6.25,0.02428,1.01,0.02454,–,–,–,–,–,–
"COC(=O)CCC(C)[C@H]1CCC2C3C(C[C@H](OC(C)=O)[C@@]21C)[C@@]1(C)CCC2(C[C@H]1C[C@H]3OC(C)=O)OOC1(CCCC1)OO2 (stereo partly drawn) [8a/1B04, Methyl 7α,12α-Diacetoxy-5β-cholan-24-oate-3-spiro-6′-(1′,2′,4′,5′-tetraoxacyclohexane)-3′-spirocyclopentane]",–,–,–,–,–,0.71,–,–,0,–,> 6.25,0.0243,0.0172
"COC(=O)CCC(C)[C@H]1CCC2C3C(C[C@H](OC(C)=O)[C@@]21C)[C@@]1(C)CCC2(C[C@H]1C[C@H]3OC(C)=O)OOC1(CCCCC1)OO2 (stereo partly drawn) [8b/1B05, Methyl 7α,12α-Diacetoxy-5β-cholan-24-oate-3-spiro-6′-(1′,2′,4′,5′-tetraoxacyclohexane)-3′-spirocyclohexane]",–,–,–,–,–,0.79,–,–,0,–,> 6.25,0.0136,0.0108
"COC(=O)CCC(C)[C@H]1CCC2C3C(C[C@H](OC(C)=O)[C@@]21C)[C@@]1(C)CCC2(C[C@H]1C[C@H]3OC(C)=O)OOC1(CC(C)CCC1C(C)C)OO2 (stereo partly drawn) [8f/1B10, Methyl 7α,12α-diacetoxy-5β-cholan-24-oate-3-spiro-6′-(1′,2′,4′,5′-tetraoxacyclohexane)-3′-spiro-1″-(−)-menthane]",–,–,–,–,–,0.47,–,–,0,–,> 6.25,0.107,0.0506
"CC(=O)O[C@H]1CC2C(C3CC[C@H](C(C)CCC(=O)O)[C@]31C)[C@H](OC(C)=O)C[C@@H]1CC3(CC[C@]21C)OOC1(CCCCC1)OO3 (stereo partly drawn) [9b/1C15, 70α,12α-Diacetoxy-5β-cholan-24-oic acid-3-spiro-6′-(1′,2′,4′,5′-tetraoxacyclohexane)-3′-spirocyclohexane]",–,–,–,–,–,0.63,–,–,33,–,> 6.25,0.019,0.0119
